In patent publication US20140196172A1, “Organelle Targeting Nanocarriers” (Her Majesty the Queen in Right of Canada, as Repre sented …, priority 2011, published 2014):

Experiments:
[1] = system: linearized plasmid DNA (linear double stranded DNA, 6.8 kb); experiment: Gel mobility shift assay; assay type: binding; conditions: minimum peptide needed for complete shift of 100 ng plasmid DNA; — = no shift up to highest ratio tested
Method: The ten non-labelled oTP sequences identified as having both cell penetrating and organelle targeting properties (Tables 3 and 4) were tested, using a gel mobility shift assay and a nuclease protection assay, for their ability to bind non-covalently to nucleic acids.
The gel mobility shift assay is used to determine the minimum peptide concentration needed to bind to plasmid DNA and cause it to shift during electrophoresis. Purified linearized plasmid DNA (100 ng of linear double stranded DNA, 6.8 kb) is mixed with increasing concentrations of each of the ten oTPs listed in Tables 3 and 4, according to calculated increasing peptide:DNA charge ratios (1:1, 2:1, 3:1, 4:1, 5:1, etc.) until a complete shift is observed in the plasmid DNA during electrophoresis. The DNA is prepared to a final concentration of a 100 ng/μl in sterile water. Each reaction has a final volume of 25 μl and is incubated for 30 min for complex formation and subjected to electrophoresis on 1% agarose gel stained with ethidium bromide.

[2] = system: mitochondria of triticale microspores; experiment: qRT-PCR of gfp mRNA, microspores transfected with pWMaadA16GFP; assay type: cell-based; conditions: gfp reporter construct
Excerpt: FIG. 17 is a plot showing the level of expression (fold increase, average of 4 replicates) of GFP in triticale microspores transfected with the pWMaadA16GFP plasmid in the presence of mTP1 (SEQ ID NO: 1), mTP2 (SEQ ID NO: 2), mTP3 (SEQ ID NO: 3), mTP4 (SEQ ID NO: 4) or mTP5 (SEQ ID NO: 5) compared to the level of expression (fold increase) of the internal control elongation factor 1a (EF1a), as measured by quantitative real time PCR of mRNA levels;
Wheat mitochondrial aadA16GFP reporter plasmid (pWMaadA16GFP, FIG. 11) is a 4587 base pair wheat specific mitochondrial transformation vector, which targets insertions into the fourth repeat region between the trnfM and rm18 gene cluster which is repeated three times in the Triticum aestivum mitochondrial genome. The insertion site is in the Triticum aestivum mitochondrial genome at nucleotides 300805-300878 and 300880-302834 (GenBank accession No. AP008982.1). A multiple cloning site is introduced following the tmfM target insertion sequence. The selection marker gene is an organelle codon specific aad-gfp fusion gene, which facilitates a dual selection method of spectinomycin resistance through an aadA derivative and visual detection by GFP fluorescence (GenBank accession No. ABX39486; Khan and Maliga, Nat. Biotechnol. (1999 September) 17(9): 910-5). The selection marker gene is driven by the Triticum aestivum mitochondrial atpA gene promoter (GenBank accession No. X54387.1). The aad-gfp fusion gene is terminated with the TpsbA terminator sequence derived from the Triticum aestivum mitochondrial genome at nucleotides 62871-62565 (GenBank accession No. AP008982.1).
The dsDNA construct (pWMaadA16GFP for mitochondrial expression or pWCaadA16GFP for expression in chloroplasts) is combined with the mTP (for mitochondrial expression) or cTP (for expression in chloroplasts) in the amounts used in the protoplast transformation experiments described above in a final volume of 100 μl of NBP-99 solution. The mixture is incubated for 10 minutes at room temperature, then incubated with isolated triticale microspores (500 μl, 10^6 microspores/ml, prepared as described in Example 2) for 1 h in the dark at room temperature. NBP-99 solution (500 μl) is added and the mixture is incubated in the dark for 24 h. The cells are imaged using confocal microscopy, as described in Example 2, using MitoTracker® Orange staining to visualize mitochondria.
Microspores are disrupted using a cleaned ceramic bead and aggressive shaking as the tissue is thawing. RLT buffer/B-Me (450 μl) is added and the sample is vortexed. The sample is heated at 55° C. for 1 minute and vortexed again. RNA is extracted using an RNeasy™ Plant Mini Kit (Qiagen), incorporating on-column DNase I digestion into the protocol. The final elution volume is 40 μl. RNA is assessed using both agarose gel […] (to ensure RNA is intact) and spectrophotometry (for quantification).
cDNA is generated using a First Strand Synthesis kit (Invitrogen). RNA (1 μg) is added to each sample and the manufacturer's protocol for synthesis followed, with the exception that the volume of the reaction mixture is increased from 20 μl to 30 μl. A negRT sample containing all reagents but no RNA is included in the cDNA synthesis as a negative control. […]
Real time PCR reactions are performed using QuantiTect™ SYBR™ Green PCR Master Mix (Qiagen) in a 20 μl reaction volume. […]

[3] = system: MDCK (Madin-Darby canine kidney) cells; experiment: Incubation of MDCK cells with fluorescently labeled peptides, confocal microscopy; assay type: cell-based; conditions: fluorescein-labelled peptide, 1 h, MitoTracker Orange
Method: MDCK cells are cultured in Dulbecco's Modified Eagle Medium (DMEM) containing 5% (v/v) fetal bovine serum (FBS) and 1% (v/v) penicillin/streptomycin at 37° C. in a humidified atmosphere containing 5% CO2. The cells grown on 10-cm dishes are detached with trypsin and ethylenediaminetetraacetic acid (EDTA) and washed with DMEM/FBS. Cells used for microscopy are prepared by adding 100 000 cells to the apical chamber of 12-mm diameter Transwell™ permeable supports (Costar, Cambridge, Mass.). Cells are cultured in DMEM/FBS for 3-5 days.
MDCK cells cultured in apical chambers of 12-mm diameter Transwell™ permeable supports are incubated with 80 μl fluoresceinated mTPs or cTPs (100 μM) and 320 μl of Dulbecco's Modified Eagle Medium (DMEM) for 1 h in the dark at room temperature, followed by washing with 400 μl of DMEM.
Cells are observed using a confocal microscope (Nikon C1, Nikon Canada Inc. or Olympus FluoView™) to analyse the localization of the fluoresceinated mTPs or cTPs (excitation wavelength 490 nm/emission wavelength 520 nm). Chloroplasts are identified by autofluorescence. The fluorescent dye MitoTracker® Orange CM-H2TMRos (M7511, Invitrogen) is used to stain mitochondria (excitation wavelength 554 nm/emission wavelength 576 nm). Fluorescence emissions are collected in z-confocal planes of […] and analyzed using EZ-C1 Software Version 3.6 (Nikon) or Olympus FluoView™ software version 2.0b (Olympus).

With “MFSYLPRYPLRAASARALVRATRPSYRSALLRYQ (listed as Triticum aestivum) [mTP1]” the “Peptide:DNA Ratio, Molar Binding Ratio” value [1] was 264.14, the “GFP expression by mitochondria confirmed by qRT-PCR” value (“GFP expression” below) [2] was “GFP is expressed” and the Mitochondrial targeting [3] was “Specific mitochondrial targeting”.

With MAAWMRSLFSPLKKLWIRMH (Zea mays) [mTP2] the “Peptide:DNA Ratio, Molar Binding Ratio” value [1] was 167.39, the “GFP expression” value [2] was “GFP is expressed” and the Mitochondrial targeting [3] was “non-specific mitochondrial localization”.

In the case of “MLFRLRRSVRLRGLLA (listed as Arabidopsis thaliana) [mTP5]”, the “Peptide:DNA Ratio, Molar Binding Ratio” value [1] was 114.29, the “GFP expression” value [2] was “GFP is expressed” and the Mitochondrial targeting [3] was “Specific mitochondrial targeting”.

With “MKLLWRLILSRKW (listed as Arabidopsis thaliana) [mTP3]” the “Peptide:DNA Ratio, Molar Binding Ratio” value [1] was 71.39, the “GFP expression” value [2] was “GFP is expressed” and the Mitochondrial targeting [3] was “Specific mitochondrial targeting”.

With “MWWRRSRTNSLRYT (listed as Arabidopsis thaliana) [mTP4]” the “GFP expression” value [2] was “GFP is expressed” and the Mitochondrial targeting [3] was “non-specific mitochondrial localization”.
